Data published in publication PMC5570900, “Exploiting a novel conformational switch to control innate immunity mediated by complement protein C3a” (Nature Communications, 2017).

Key:
Format in all cases: cell-based
C3aR [1] = target: T1, C3aR (Homo sapiens, UniProt Q16581); assay: Histamine secretion in human LAD2 mast cells (agonist mode); set-up: Concentration-dependent histamine secretion in human LAD2 mast cells; endogenous in cells; host or cells: LAD2 human mast cells; conditions: compound alone, 30 min, n ≥ 3, ± SEM
T1 sequence (Q16581 1-482): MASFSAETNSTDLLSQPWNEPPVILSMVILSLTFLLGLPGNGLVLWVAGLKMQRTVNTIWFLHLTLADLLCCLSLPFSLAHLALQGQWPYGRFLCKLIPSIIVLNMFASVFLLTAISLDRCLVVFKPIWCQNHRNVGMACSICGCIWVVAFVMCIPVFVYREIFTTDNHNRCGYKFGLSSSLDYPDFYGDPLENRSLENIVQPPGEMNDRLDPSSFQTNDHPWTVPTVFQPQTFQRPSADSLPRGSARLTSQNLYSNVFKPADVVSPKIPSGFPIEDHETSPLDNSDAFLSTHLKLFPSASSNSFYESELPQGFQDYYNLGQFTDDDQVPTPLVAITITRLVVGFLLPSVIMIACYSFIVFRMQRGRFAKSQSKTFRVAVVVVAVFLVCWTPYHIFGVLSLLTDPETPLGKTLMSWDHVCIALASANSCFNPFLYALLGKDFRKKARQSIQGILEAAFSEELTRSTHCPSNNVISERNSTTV
Procedure: (§1) LAD2 human mast cells (kindly provided by Dr Dean Metcalfe, National Institute of Allergy and Infectious Diseases, National Institute of Health) were cultured in StemPro®-34 Serum Free Media (Invitrogen, Australia) supplemented with StemPro®-34 nutrient, 100 U/mL penicillin, 100 μg/mL streptomycin, 2 mM GlutaMAX, and 100 ng/mL human stem cell factor (SCF). Cells were hemi-depleted weekly and were not allowed to grow beyond a density of 0.5 × 10^6/mL. This cell line was authenticated by expression of tryptase and histamine granules. For the histamine assay, 1 × 10^4 cells per well were seeded in StemPro®-34 SFM in 96-well plates for 30 min before any treatments. For agonist studies, the cells were treated with compounds prepared in media for 30 min. For antagonist studies, the cells were pre-treated with compounds prepared in SFM for 30 min before addition of C3aR agonists for another 30 min. Cells were centrifuged (500 g, 5 min, 4 °C) and cell-free supernatants were collected for measuring histamine. Histamine content was measured using the histamine EIA kit according to the manufacturer’s instructions (Abnova, Taiwan). The readings were recorded on a FLUOstar Optima (BMG LabTechnologies, Offenburg, Germany).

C3aR [2] = target: T1, C3aR; assay: Intracellular Ca2+ release in human monocyte-derived macrophages (agonist mode); set-up: Concentration-dependent Ca^2+ release in human monocyte-derived macrophages (HMDMs); endogenous in cells; host or cells: primary human monocyte-derived macrophages (HMDMs); conditions: HMDMs, n ≥ 3, ± SEM
Procedure: HMDMs were isolated using Ficoll-paque density centrifugation (GE Healthcare Bio-Science, Uppsala, Sweden) from buffy coat (of anonymous human donors) provided by the Australian Red Cross Blood Service, Brisbane. CD14^+ monocytes were positively selected using CD14 MicroBeads (Miltenyi Biotech, Auburn, USA)[40], [41]. CD14^+ monocytes were differentiated to HMDMs using 100 ng/mL of recombinant human macrophage colony-stimulating factor (PeptroTech, Rocky Hill, USA) for 7 days in Iscove’s modified Dulbecco’s media supplemented with 10% fetal bovine serum, penicillin (100 U/mL), streptomycin (100 µg/mL) and L-glutamine (2 mM). HMDMs were supplemented after 5 days with fresh medium containing 10 ng/ml macrophage colony-stimulating factor and collected by gentle scraping on day 7.
HMDMs were seeded to a 96-well clear-bottom black-wall assay plate at a density of 5 × 10^4 cells per well and allowed to adhere overnight. Prior to assay, cells were incubated with dye-loading buffer (Hank’s balance salt solution (HBSS) buffer, 4 μM Fluo-3 AM, 25 μl Pluronic acid F-127 and 1% fetal bovine serum) for 1 h at 37 °C. Cells were then washed once with assay buffer (HBSS supplemented with 2.5 mM probenecid and 20 mM HEPES, pH 7.4). Intracellular calcium release was monitored using a fluorescence imaging plate reader (excitation 495 nm, emission 520 nm). The percentage responses were plotted against logarithmic concentrations of each test compound[42].

C3aR [3] = target: T1, C3aR; assay: Inhibition of hC3a-induced histamine secretion in human LAD2 mast cells (antagonist mode); set-up: Concentration-dependent histamine secretion in human LAD2 mast cells; endogenous in cells; host or cells: LAD2 human mast cells; conditions: hC3a 100 nM, pre-treated 30 min, n ≥ 3, ± SEM
Procedure: as §1

| EC50 (C3aR [1]) [nM] | EC50 (C3aR [2]) [nM] | IC50 (C3aR [3]) [nM] | SMILES |
| --- | --- | --- | --- |
| 20 ± 10 | 22 ± 8 |  | Cc1[nH]c(C(c2ccccc2)c2ccccc2)nc1C(=O)N[C@@H](CCCNC(=N)N)C(=O)O [Compound 3] |
|  |  | 3.5 ± 1.5 | N=C(N)NCCCC(NC(=O)c1ccc(C(c2ccccc2)c2ccccc2)s1)C(=O)O (stereo not drawn) [Compound 6] |
